{
  "source": "patent US8530489B2",
  "about": "(Vertex Pharmaceuticals Incorporated, priority 2006, dated 2013)",
  "note": "pKi: −log10 of the molar value.",
  "data": [
    {"target": "PLK1 (Homo sapiens, UniProt P53350)", "sequence (P53350 whole entry)": "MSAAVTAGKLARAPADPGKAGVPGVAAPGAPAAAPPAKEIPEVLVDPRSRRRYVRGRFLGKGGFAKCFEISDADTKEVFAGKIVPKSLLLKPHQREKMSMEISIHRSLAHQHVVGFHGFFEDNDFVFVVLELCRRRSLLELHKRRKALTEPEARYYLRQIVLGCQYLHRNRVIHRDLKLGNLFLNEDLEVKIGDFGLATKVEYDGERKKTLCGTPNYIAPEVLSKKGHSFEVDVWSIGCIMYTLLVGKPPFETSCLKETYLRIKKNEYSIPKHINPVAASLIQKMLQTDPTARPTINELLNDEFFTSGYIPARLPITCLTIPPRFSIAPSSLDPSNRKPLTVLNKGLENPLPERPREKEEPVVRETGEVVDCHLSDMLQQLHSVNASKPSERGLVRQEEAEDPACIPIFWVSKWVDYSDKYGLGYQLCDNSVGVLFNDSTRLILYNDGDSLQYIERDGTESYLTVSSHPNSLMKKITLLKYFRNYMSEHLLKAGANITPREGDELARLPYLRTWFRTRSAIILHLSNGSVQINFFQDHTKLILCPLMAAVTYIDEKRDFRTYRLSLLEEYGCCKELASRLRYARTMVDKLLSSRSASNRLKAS", "assay": "PLK1 Inhibition Assay I (radioactive-phosphate incorporation)", "format": "biochemical", "settings": "Ki(app); PLK1 Inhibition Assay I or II (table does not say which)", "outline": "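Ki(app) values came from non-linear regression of initial rates after background subtraction, with phosphopeptide measured by phosphocellulose filter binding and scintillation counting. PLK1 at 2 nM was preincubated with compound (typically from 10 μM, 2-fold dilutions) for 10 min, then run 240 min at 25° C with 350 μM [γ-33P]ATP and 450 μM peptide substrate in HEPES pH 7.5 buffer.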", "values": [
      {"smiles": "C[C@@H](Nc1ncc(C#N)c(-c2c[nH]c3ncc(C(F)(F)F)cc23)n1)c1cnc(O)nc1", "note": "[Compound I-302, 2-(I-1-(2-hydroxypyrimidin-5-yl)ethylamino)-4-(5-(trifluoromethyl)-1H-pyrrolo[2,3-b]pyridin-3-yl)pyrimidine-5-carbonitrile]", "pKi": "> 8.52"},
      {"smiles": "CC(Nc1ncc(C#N)c(-c2c[nH]c3ncc(C(F)(F)F)cc23)n1)C1(F)CCN(C(=O)CN)CC1", "note": "(centres unmarked) [Compound I-234, 2-(1-(1-(2-aminoacetyl)-4-fluoropiperidin-4-yl)ethylamino)-4-(5-(trifluoromethyl)-1H-pyrrolo[2,3-b]pyridin-3-yl)pyrimidine-5-carbonitrile]", "pKi": "> 8.52"},
      {"smiles": "COCC(=O)N1CCC(C(C)Nc2ncc(C#N)c(-c3c[nH]c4ncc(C(F)(F)F)cc34)n2)CC1", "note": "(centres unmarked) [Compound I-183, 2-(1-(1-(2-methoxyacetyl)piperidin-4-yl)ethylamino)-4-(5-(trifluoromethyl)-1H-pyrrolo[2,3-b]pyridin-3-yl)pyrimidine-5-carbonitrile]", "pKi": "> 8.52"},
      {"smiles": "CC(=O)N1CCC(C(C)Nc2ncc(C#N)c(-c3c[nH]c4ncc(C(F)(F)F)cc34)n2)CC1", "note": "(centres unmarked) [Compound I-101, 2-(1-(1-acetylpiperidin-4-yl)ethylamino)-4-(5-(trifluoromethyl)-1H-pyrrolo[2,3-b]pyridin-3-yl)pyrimidine-5-carbonitrile]", "pKi": "> 8.52"},
      {"smiles": "CC(=O)N[C@H]1CC[C@@H]([C@@H](C)Nc2ncc(C#N)c(-c3c[nH]c4ncc(C(F)(F)F)cc34)n2)CC1", "note": "[Compound I-209, N-((1S,4s)-4-((1R)-1-(5-cyano-4-(5-(trifluoromethyl)-1H-pyrrolo[2,3-b]pyridin-3-yl)pyrimidin-2-ylamino)ethyl)cyclohexyl)acetamide]", "pKi": "7.40 to 8.52"},
      {"smiles": "CC[C@H](C)Nc1ncc(C#N)c(-c2c[nH]c3ncc(C(F)(F)F)cc23)n1", "note": "[Compound I-77, 2-(sec-butylamino)-4-(5-(trifluoromethyl)-1H-pyrrolo[2,3-b]pyridin-3-yl)pyrimidine-5-carbonitrile]", "pKi": "7.40 to 8.52"},
      {"smiles": "C[C@@H](Nc1ncc(C#N)c(-c2c[nH]c3ncc(C(F)(F)F)cc23)n1)C1CCN(C(=O)[C@H]2CCN2)CC1", "note": "[Compound I-259, 2-((R)-1-(1-((R)-azetidine-2-carbonyl)piperidin-4-yl)ethylamino)-4-(5-(trifluoromethyl)-1H-pyrrolo[2,3-b]pyridin-3-yl)pyrimidine-5-carbonitrile]", "pKi": "> 8.52"},
      {"smiles": "N#Cc1cnc(NCCc2ccccc2)nc1-c1c[nH]c2ncc(C(F)(F)F)cc12", "note": "[Compound I-7, 2-(phenethylamino)-4-(5-(trifluoromethyl)-1H-pyrrolo[2,3-b]pyridin-3-yl)pyrimidine-5-carbonitrile]", "pKi": "< 7.40"},
      {"smiles": "N#Cc1cnc(N[C@@H]2CC3CC[C@@H]2C3)nc1-c1c[nH]c2ncc(C(F)(F)F)cc12", "note": "[Compound I-65, 2-((1R,2R)-bicyclo[2.2.1]heptan-2-ylamino)-4-(5-(trifluoromethyl)-1H-pyrrolo[2,3-b]pyridin-3-yl)pyrimidine-5-carbonitrile]", "pKi": "7.40 to 8.52"},
      {"smiles": "CNC(=O)c1ccc([C@H](C)Nc2ncc(C#N)c(-c3c[nH]c4ncc(C(F)(F)F)cc34)n2)cc1", "note": "[Compound I-164, 4-((1S)-1-(5-cyano-4-(5-(trifluoromethyl)-1H-pyrrolo[2,3-b]pyridin-3-yl)pyrimidin-2-ylamino)ethyl)-N-methylbenzamide]", "pKi": "7.40 to 8.52"},
      {"smiles": "N#Cc1cnc(NCCC2CCCN2)nc1-c1c[nH]c2ncc(C(F)(F)F)cc12", "note": "(centres unmarked) [Compound I-85, 2-(2-(pyrrolidin-2-yl)ethylamino)-4-(5-(trifluoromethyl)-1H-pyrrolo[2,3-b]pyridin-3-yl)pyrimidine-5-carbonitrile]", "pKi": "< 7.40"},
      {"smiles": "C[C@@H](Nc1ncc(C#N)c(-c2c[nH]c3ncc(C(F)(F)F)cc23)n1)c1ccc(CO)cc1", "note": "[Compound I-185, 2-((R)-1-(4-(hydroxymethyl)phenyl)ethylamino)-4-(5-(trifluoromethyl)-1H-pyrrolo[2,3-b]pyridin-3-yl)pyrimidine-5-carbonitrile]", "pKi": "> 8.52"},
      {"smiles": "C[C@@H](Nc1ncc(C#N)c(-c2c[nH]c3ncc(C(F)(F)F)cc23)n1)C1CCN(C(=O)[C@@H](N)CCCN)CC1", "note": "[Compound I-254, 2-((R)-1-(1-((S)-2,5-diaminopentanoyl)piperidin-4-yl)ethylamino)-4-(5-(trifluoromethyl)-1H-pyrrolo[2,3-b]pyridin-3-yl)pyrimidine-5-carbonitrile]", "pKi": "> 8.52"},
      {"smiles": "CC(Nc1ncc(C#N)c(-c2c[nH]c3ncc(C(F)(F)F)cc23)n1)c1ccc(N2CC(O)C2)nc1", "note": "(centres unmarked) [Compound I-201, 2-(1-(6-(3-hydroxyazetidin-1-yl)pyridin-3-yl)ethylamino)-4-(5-(trifluoromethyl)-1H-pyrrolo[2,3-b]pyridin-3-yl)pyrimidine-5-carbonitrile]", "pKi": "> 8.52"},
      {"smiles": "CCN(CCN(C)C)c1ccc([C@@H](C)Nc2ncc(C#N)c(-c3c[nH]c4ncc(C(F)(F)F)cc34)n2)cn1", "note": "[Compound I-296, 2-((R)-1-(6-((2-(dimethylamino)ethyl)(ethyl)amino)pyridin-3-yl)ethylamino)-4-(5-(trifluoromethyl)-1H-pyrrolo[2,3-b]pyridin-3-yl)pyrimidine-5-carbonitrile]", "pKi": "> 8.52"},
      {"smiles": "C[C@@H](Nc1ncc(C#N)c(-c2c[nH]c3ncc(C(F)(F)F)cc23)n1)c1ccc(N(C)C)cc1", "note": "[Compound I-133, 2-((R)-1-(4-(dimethylamino)phenyl)ethylamino)-4-(5-(trifluoromethyl)-1H-pyrrolo[2,3-b]pyridin-3-yl)pyrimidine-5-carbonitrile]", "pKi": "> 8.52"},
      {"smiles": "CC(Nc1ncc(C#N)c(-c2c[nH]c3ncc(C(F)(F)F)cc23)n1)c1cccnc1", "note": "(centres unmarked) [Compound I-51, 2-(1-(pyridin-3-yl)ethylamino)-4-(5-(trifluoromethyl)-1H-pyrrolo[2,3-b]pyridin-3-yl)pyrimidine-5-carbonitrile]", "pKi": "> 8.52"},
      {"smiles": "CC(Nc1ncc(C#N)c(-c2c[nH]c3ncc(C(F)(F)F)cc23)n1)C1CCN(CC#N)CC1", "note": "(centres unmarked) [Compound I-166, 2-(1-(1-(cyanomethyl)piperidin-4-yl)ethylamino)-4-(5-(trifluoromethyl)-1H-pyrrolo[2,3-b]pyridin-3-yl)pyrimidine-5-carbonitrile]", "pKi": "> 8.52"},
      {"smiles": "C[C@@H](Nc1ncc(C#N)c(-c2c[nH]c3ncc(C(F)(F)F)cc23)n1)c1cnc(N2CCN(C)CC2)nc1", "note": "[Compound I-299, 2-((R)-1-(2-(4-methylpiperazin-1-yl)pyrimidin-5-yl)ethylamino)-4-(5-(trifluoromethyl)-1H-pyrrolo[2,3-b]pyridin-3-yl)pyrimidine-5-carbonitrile]", "pKi": "> 8.52"},
      {"smiles": "N#Cc1cnc(NCc2cccc(F)c2)nc1-c1c[nH]c2ncc(C(F)(F)F)cc12", "note": "[Compound I-18, 2-(3-fluorobenzylamino)-4-(5-(trifluoromethyl)-1H-pyrrolo[2,3-b]pyridin-3-yl)pyrimidine-5-carbonitrile]", "pKi": "7.40 to 8.52"},
      {"smiles": "C[C@@H](Nc1ncc(C#N)c(-c2c[nH]c3ncc(C(F)(F)F)cc23)n1)[C@H]1CC[C@H](N2CCN(C)CC2)CC1", "note": "[Compound I-261, 2-((R)-1-((1r,4R)-4-(4-methylpiperazin-1-yl)cyclohexyl)ethylamino)-4-(5-(trifluoromethyl)-1H-pyrrolo[2,3-b]pyridin-3-yl)pyrimidine-5-carbonitrile]", "pKi": "> 8.52"},
      {"smiles": "CCNC(=O)c1ccc([C@@H](C)Nc2ncc(C#N)c(-c3c[nH]c4ncc(C(F)(F)F)cc34)n2)cc1", "note": "[Compound I-170, 4-((1R)-1-(5-cyano-4-(5-(trifluoromethyl)-1H-pyrrolo[2,3-b]pyridin-3-yl)pyrimidin-2-ylamino)ethyl)-N-ethylbenzamide]", "pKi": "> 8.52"},
      {"smiles": "C[C@@H](Nc1ncc(C#N)c(-c2c[nH]c3ncc(C(F)(F)F)cc23)n1)C1CCN(C(=O)C2(O)CC2)CC1", "note": "[Compound I-220, 2-((R)-1-(1-(1-hydroxycyclopropanecarbonyl)piperidin-4-yl)ethylamino)-4-(5-(trifluoromethyl)-1H-pyrrolo[2,3-b]pyridin-3-yl)pyrimidine-5-carbonitrile]", "pKi": "> 8.52"},
      {"smiles": "CC(C)N1CCN(c2ccc([C@@H](C)Nc3ncc(C#N)c(-c4c[nH]c5ncc(C(F)(F)F)cc45)n3)cc2)CC1", "note": "[Compound I-140, 2-((R)-1-(4-(4-isopropylpiperazin-1-yl)phenyl)ethylamino)-4-(5-(trifluoromethyl)-1H-pyrrolo[2,3-b]pyridin-3-yl)pyrimidine-5-carbonitrile]", "pKi": "> 8.52"},
      {"smiles": "C[C@@H](Nc1ncc(C#N)c(-c2c[nH]c3ncc(C(F)(F)F)cc23)n1)c1ccc(S(N)(=O)=O)cc1", "note": "[Compound I-196, 4-((1R)-1-(5-cyano-4-(5-(trifluoromethyl)-1H-pyrrolo[2,3-b]pyridin-3-yl)pyrimidin-2-ylamino)ethyl)benzenesulfonamide]", "pKi": "> 8.52"},
      {"smiles": "N#Cc1cnc(NC(CCO)C2CC2)nc1-c1c[nH]c2ncc(C(F)(F)F)cc12", "note": "(centres unmarked) [Compound I-106, 2-(1-cyclopropyl-3-hydroxypropylamino)-4-(5-(trifluoromethyl)-1H-pyrrolo[2,3-b]pyridin-3-yl)pyrimidine-5-carbonitrile]", "pKi": "7.40 to 8.52"},
      {"smiles": "COc1ccc(CNc2ncc(C#N)c(-c3c[nH]c4ncc(C(F)(F)F)cc34)n2)cc1", "note": "[Compound I-12, 2-(4-methoxybenzylamino)-4-(5-(trifluoromethyl)-1H-pyrrolo[2,3-b]pyridin-3-yl)pyrimidine-5-carbonitrile]", "pKi": "< 7.40"},
      {"smiles": "C[C@@H](Nc1ncc(C#N)c(-c2c[nH]c3ncc(C(F)(F)F)cc23)n1)C1CCN(C(=O)CO)CC1", "note": "[Compound I-205, 2-((R)-1-(1-(2-hydroxyacetyl)piperidin-4-yl)ethylamino)-4-(5-(trifluoromethyl)-1H-pyrrolo[2,3-b]pyridin-3-yl)pyrimidine-5-carbonitrile]", "pKi": "> 8.52"},
      {"smiles": "CC(C)(C)OC(=O)N1CCC(CNc2ncc(C#N)c(-c3c[nH]c4ncc(C(F)(F)F)cc34)n2)CC1", "note": "[Compound I-28, tert-butyl 4-((5-cyano-4-(5-(trifluoromethyl)-1H-pyrrolo[2,3-b]pyridin-3-yl)pyrimidin-2-ylamino)methyl)piperidine-1-carboxylate]", "pKi": "< 7.40"}
    ]}
  ]
}
